According to USRE32311E:
Values after ≈ are worked out from the molar mass of the structure shown.

How the values were obtained:
[1] = system: Staphylococcus aureus X400; assay: agar-dilution MIC; type: cell-based; conditions: Staphylococcus aureus X400, methicillin-resistant strain
Method: (§1) In Table VII activity is measured by the minimal inhibitory concentration (MIC), i.e. the lowest concentration of compound at which growth of the microorganism is inhibited by the test compound.

[2] = system: Streptococcus Group D X66; assay: agar-dilution MIC; type: cell-based
Method: as §1

[3] = system: Streptococcus Group D 9960; assay: agar-dilution MIC; type: cell-based
[4] = system: Staphylococcus aureus V41; assay: agar-dilution MIC; type: cell-based; conditions: Staphylococcus aureus V41, penicillin-resistant strain
Method: as §1

[5] = system: Streptococcus pyogenes; assay: experimental bacterial infection in mice, ED50; type: in vivo; conditions: two doses
[6] = system: Staphylococcus aureus X1.1; assay: agar-dilution MIC; type: cell-based
[7] = system: Staphylococcus epidermidis EP12; assay: agar-dilution MIC; type: cell-based
Method: as §1

[8] = system: Staphylococcus epidermidis EP11; assay: agar-dilution MIC; type: cell-based
Method: as §1

[9] = toxicity, LD50 in mice; type: in vivo; conditions: administered intravenously
[10] = system: Streptococcus pyogenes C203; assay: agar-dilution MIC; type: cell-based
Method: as §1

[11] = system: Streptococcus pneumoniae Park I; type: cell-based; conditions: agar dilution
Method: as §1

[12] = system: Staphylococcus aureus; assay: experimental bacterial infection in mice, ED50; type: in vivo; conditions: two doses

CCCCCCCCCCCC(=O)N[C@H](Cc1ccccc1)C(=O)N[C@@H](Cc1c[nH]c2ccccc12)C(=O)N[C@H](CC(N)=O)C(=O)N[C@@H](CC(=O)O)C(=O)N[C@@H]1C(=O)NCC(=O)N[C@@H](CCCN)C(=O)N[C@@H](CC(=O)O)C(=O)N[C@H](C)C(=O)N[C@@H](CC(=O)O)C(=O)NCC(=O)N[C@H](CO)C(=O)N[C@@H]([C@H](C)CC(=O)O)C(=O)N[C@@H](CC(=O)c2ccccc2N)C(=O)O[C@@H]1C [Compound 1]
MIC [1]: 1 µg/mL (≈ 0.557 µM) | MIC [2]: 1 µg/mL (≈ 0.557 µM) | MIC [3]: 0.5 µg/mL (≈ 0.278 µM) | MIC [4]: 0.5 µg/mL (≈ 0.278 µM) | ED50 Streptococcus pyogenes Oral [5]: > 200 mg/kg × 2 | MIC [6]: 0.5 µg/mL (≈ 0.278 µM) | MIC [7]: 1 µg/mL (≈ 0.557 µM) | MIC [8]: 2 µg/mL (≈ 1.11 µM) | LD50 in Mice [9]: 250 mg/kg

CCCCCCCCCCCC(=O)NCCCCC(=O)N[C@@H](Cc1c[nH]c2ccccc12)C(=O)N[C@H](CC(N)=O)C(=O)N[C@@H](CC(=O)O)C(=O)N[C@@H]1C(=O)NCC(=O)N[C@@H](CCCN)C(=O)N[C@@H](CC(=O)O)C(=O)N[C@H](C)C(=O)N[C@@H](CC(=O)O)C(=O)NCC(=O)N[C@H](CO)C(=O)N[C@@H]([C@H](C)CC(=O)O)C(=O)N[C@@H](CC(=O)c2ccccc2N)C(=O)O[C@@H]1C [Compound 2]
MIC [1]: 4 µg/mL (≈ 2.29 µM) | MIC [10]: 1 µg/mL (≈ 0.572 µM) | MIC [2]: 32 µg/mL (≈ 18.3 µM) | MIC [3]: 8 µg/mL (≈ 4.58 µM) | MIC [4]: 4 µg/mL (≈ 2.29 µM) | MIC [11]: 4 µg/mL (≈ 2.29 µM) | ED50 Streptococcus pyogenes Oral [5]: 117 mg/kg × 2 | MIC [6]: 4 µg/mL (≈ 2.29 µM) | MIC [7]: 2 µg/mL (≈ 1.14 µM) | MIC [8]: 4 µg/mL (≈ 2.29 µM) | LD50 in Mice [9]: > 600 mg/kg

CCCCCCCCCCCC(=O)NCCCCCCCCCCC(=O)N[C@@H](Cc1c[nH]c2ccccc12)C(=O)N[C@H](CC(N)=O)C(=O)N[C@@H](CC(=O)O)C(=O)N[C@@H]1C(=O)NCC(=O)N[C@@H](CCCN)C(=O)N[C@@H](CC(=O)O)C(=O)N[C@H](C)C(=O)N[C@@H](CC(=O)O)C(=O)NCC(=O)N[C@H](CO)C(=O)N[C@@H]([C@H](C)CC(=O)O)C(=O)N[C@@H](CC(=O)c2ccccc2N)C(=O)O[C@@H]1C [Compound 3]
MIC [1]: 8 µg/mL (≈ 4.37 µM) | MIC [10]: 2 µg/mL (≈ 1.09 µM) | MIC [2]: 8 µg/mL (≈ 4.37 µM) | MIC [3]: 8 µg/mL (≈ 4.37 µM) | MIC [4]: 2 µg/mL (≈ 1.09 µM) | MIC [11]: 0.5 µg/mL (≈ 0.273 µM) | ED50 Streptococcus pyogenes Oral [5]: > 200 mg/kg × 2 | ED50 Streptococcus pyogenes Subcutaneous [5]: 6.2 mg/kg × 2 | MIC [6]: 2 µg/mL (≈ 1.09 µM) | ED50 Staphylococcus aureus Subcutaneous [12]: > 18 mg/kg × 2 | MIC [7]: 8 µg/mL (≈ 4.37 µM) | MIC [8]: 8 µg/mL (≈ 4.37 µM) | LD50 in Mice [9]: 600 mg/kg

CCCCCCCCCCCC(=O)Nc1ccc(C(=O)N[C@@H](Cc2c[nH]c3ccccc23)C(=O)N[C@H](CC(N)=O)C(=O)N[C@@H](CC(=O)O)C(=O)N[C@@H]2C(=O)NCC(=O)N[C@@H](CCCN)C(=O)N[C@@H](CC(=O)O)C(=O)N[C@H](C)C(=O)N[C@@H](CC(=O)O)C(=O)NCC(=O)N[C@H](CO)C(=O)N[C@@H]([C@H](C)CC(=O)O)C(=O)N[C@@H](CC(=O)c3ccccc3N)C(=O)O[C@@H]2C)cc1 [Compound 4]
MIC [1]: 8 µg/mL (≈ 4.53 µM) | ED50 Streptococcus pyogenes Oral [5]: > 200 mg/kg × 2 | ED50 Streptococcus pyogenes Subcutaneous [5]: 18.8 mg/kg × 2 | MIC [6]: 4 µg/mL (≈ 2.26 µM) | ED50 Staphylococcus aureus Subcutaneous [12]: < 5 mg/kg × 2 | LD50 in Mice [9]: > 300 mg/kg

CCCCCCCCCC(=O)N[C@@H](Cc1c[nH]c2ccccc12)C(=O)N[C@@H](CC(N)=O)C(=O)N[C@@H](CC(=O)O)C(=O)N[C@@H]1C(=O)NCC(=O)N[C@@H](CCCN)C(=O)N[C@@H](CC(=O)O)C(=O)N[C@H](C)C(=O)N[C@@H](CC(=O)O)C(=O)NCC(=O)N[C@H](CO)C(=O)N[C@@H]([C@H](C)CC(=O)O)C(=O)N[C@@H](CC(=O)c2ccccc2N)C(=O)O[C@@H]1C [Compound 6]
MIC [1]: 4 µg/mL (≈ 2.47 µM) | MIC [10]: 0.5 µg/mL (≈ 0.309 µM) | MIC [2]: 16 µg/mL (≈ 9.87 µM) | MIC [3]: 2 µg/mL (≈ 1.23 µM) | MIC [4]: 2 µg/mL (≈ 1.23 µM) | MIC [11]: 2 µg/mL (≈ 1.23 µM) | MIC [6]: 1 µg/mL (≈ 0.617 µM) | MIC [7]: 2 µg/mL (≈ 1.23 µM) | MIC [8]: 2 µg/mL (≈ 1.23 µM)

CCCCCCCCCCCCCCCC(=O)N[C@@H](Cc1c[nH]c2ccccc12)C(=O)N[C@@H](CC(N)=O)C(=O)N[C@@H](CC(=O)O)C(=O)N[C@@H]1C(=O)NCC(=O)N[C@@H](CCCN)C(=O)N[C@@H](CC(=O)O)C(=O)N[C@H](C)C(=O)N[C@@H](CC(=O)O)C(=O)NCC(=O)N[C@H](CO)C(=O)N[C@@H]([C@H](C)CC(=O)O)C(=O)N[C@@H](CC(=O)c2ccccc2N)C(=O)O[C@@H]1C [Compound 10]
MIC [10]: 0.06 µg/mL (≈ 0.0352 µM) | MIC [3]: 2.1 µg/mL (≈ 1.23 µM) | MIC [11]: 0.25 µg/mL (≈ 0.147 µM) | ED50 Streptococcus pyogenes Subcutaneous [5]: 0.69 mg/kg × 2 | MIC [8]: 2.1 µg/mL (≈ 1.23 µM) | LD50 in Mice [9]: 450 mg/kg
